In assay [1] the test system is 2B4/BCL-2. Briefly: caspase activation in 2B4/MCL-1 versus 2B4/BCL-2 cells, late-stage follow-up, selectivity assay for MCL1-BIM inhibitor project, cell-based, fluorescence, assay provider data (AID 493062). The conditions noted are these: 2B4/MCL-1 caspase activation fluorescence.
Assay [2] has as its system 2B4/MCL-1. Described as above. To be noted: 2B4/MCL-1 caspase activation fluorescence.

In PubChem BioAssay AID493062 (The Scripps Research Institute Molecular Screening Center, 2011) one finds EC50 data, which are given here for 70 compounds.

As to `O=C(NC(=S)Nc1cccc(S(=O)(=O)NC2=NCCC2)c1)c1cc(-c2ccco2)nc2ccccc12`, the concentration for a half-maximal effect (EC50) in assay [1] and in assay [2] was over 25 µM each time.
On to `O=C(NC1CC1)c1cc(-c2ccco2)nc2ccccc12`, for which the EC50 in assay [1] and in assay [2] was over 25 µM in each case.
For the compound `O=C(NCCCN1CCOCC1)c1cc(-c2ccco2)nc2ccccc12`, the EC50 in assay [1] and in assay [2] was over 25 µM throughout.
In the case of `COc1ccc(Cc2nnc(NC(=O)Cc3ccccc3C)s2)cc1OC`, the EC50 in assay [1] and in assay [2] was over 25 µM throughout.
Regarding `Cc1ccc(-c2cc(C(=O)N3CCCC(C(F)(F)F)C3)c3ccccc3n2)o1` (stereo not given), the 50% effective concentration (EC50) in assay [1] and in assay [2] was over 25 µM throughout.
As to `COCCCN(C(=O)c1cc(-c2ccco2)nc2ccccc12)c1c(N)n(Cc2ccccc2)c(=O)[nH]c1=O`, the EC50 in assay [1] and in assay [2] was over 25 µM in each case.
Regarding `COc1ccc(Cc2nnc(NC(=O)Cc3ccc(C)cc3)s2)cc1OC`, the EC50 in assay [1] and in assay [2] was over 25 µM throughout.
Turning to `O=C(c1cc(-c2ccco2)nc2ccccc12)N1CCN(c2ccc(F)cc2)CC1`, the concentration for a half-maximal effect (EC50) in assay [1] and in assay [2] was over 25 µM in each case.
For the compound `Cc1cccc(NC(=O)c2cc(-c3ccco3)nc3ccc(Br)cc23)n1`, the EC50 stood at 0.6 µM in assay [1] and 25 µM in assay [2].
As for `COc1ccc(Cc2nnc(CC(=O)Nc3cccs3)s2)cc1`, the EC50 in assay [1] and in assay [2] was over 25 µM throughout.
With `COc1ccc(Cc2nnc(NC(=O)C3(c4ccccc4)CC3)s2)cc1OC`, the half-maximal effective concentration (EC50) in assay [1] and in assay [2] was over 25 µM each time.
In the case of `Cc1ccc(NC(=O)c2cc(-c3ccco3)nc3ccccc23)cc1S(=O)(=O)N1CCOCC1`, the EC50 in assay [1] and in assay [2] was over 25 µM throughout.
Regarding `Cc1ccc(-c2cc(C(=O)Nc3nccs3)c3ccccc3n2)o1`, the EC50 in assay [1] and in assay [2] was over 25 µM throughout.
In the case of `Cc1ccc(-c2cc(C(=O)Nc3cccnc3)c3ccccc3n2)o1`, the half-maximal effective concentration (EC50) in assay [1] and in assay [2] was over 25 µM each time.
In the case of `Cc1ccc(-c2cc(C(=O)Nc3ccccc3C(N)=O)c3ccccc3n2)o1`, the EC50 in assay [1] and in assay [2] was over 25 µM in each case.
Regarding `COc1ccc(Cc2nnc(NC(=O)Cc3cc(F)cc(F)c3)s2)cc1OC`, the 50% effective concentration (EC50) in assay [1] and in assay [2] was over 25 µM throughout.
As to `COc1ccc(NC(=O)c2cc(-c3ccc(C)o3)nc3ccccc23)cc1`, the EC50 in assay [1] and in assay [2] was over 25 µM throughout.
For the compound `CCN(CC)C(=O)COc1ccc2c(-c3ccc(OC)cc3)cc(=O)oc2c1C`, the half-maximal effective concentration (EC50) in assay [1] and in assay [2] was over 25 µM throughout.
In the case of `O=C(CCn1nnc2ccccc21)Nc1nnc(Cc2ccc(F)cc2)s1`, the EC50 in assay [1] and in assay [2] was over 25 µM each time.
In the case of `Cc1ccc(-c2cc(C(=O)N3CC(C)CC(C)C3)c3ccccc3n2)o1` (stereo not given), the 50% effective concentration (EC50) in assay [1] and in assay [2] was over 25 µM in each case.
For the compound `CCN(CC)CCNC(=O)c1cc(-c2ccco2)nc2ccccc12`, the EC50 in assay [1] and in assay [2] was over 25 µM in each case.
As for `COc1ccc(-c2cc(=O)oc3cc(OCC(=O)N4CC4)ccc23)cc1`, the EC50 in assay [1] and in assay [2] was over 25 µM each time.
For `Cc1ccnc(NC(=O)c2cc(-c3ccc(C)o3)nc3ccccc23)c1`, the concentration giving a half-maximal response (EC50) in assay [1] and in assay [2] was 40 µM in each case.
In the case of `CCOC(=O)c1cc(-c2ccco2)nc2c1c(C)nn2-c1cccc(Cl)c1`, the EC50 in assay [1] and in assay [2] was over 25 µM throughout.
Regarding `O=C(c1cc(-c2ccco2)nc2ccccc12)N(Cc1nnc(-c2ccc(Cl)cc2)o1)C1CC1`, the concentration giving a half-maximal response (EC50) in assay [1] and in assay [2] was over 25 µM throughout.
As for `COc1ccc(NC(=O)c2cc(-c3ccc(C)o3)nc3ccccc23)c(OC)c1`, the half-maximal effective concentration (EC50) in assay [1] and in assay [2] was over 25 µM each time.
For the compound `O=C(NCC1CCCO1)c1cc(-c2ccco2)nc2ccccc12` (stereo not given), the EC50 in assay [1] and in assay [2] was over 25 µM each time.
In the case of `COc1ccc(Cc2nnc(NC(=O)c3cc(-c4ccco4)nc4ccccc34)s2)cc1OC`, the EC50 in assay [1] and in assay [2] was over 25 µM throughout.
Take `Cc1ccc(-c2cc(C(=O)Nc3cccc(S(=O)(=O)N(C)C)c3)c3ccccc3n2)o1`: the 50% effective concentration (EC50) in assay [1] and in assay [2] was over 25 µM each time.
Turning to `CCCCn1c(N)c(N(CCOC)C(=O)c2cc(-c3ccco3)nc3ccccc23)c(=O)[nH]c1=O`, the concentration giving a half-maximal response (EC50) in assay [1] and in assay [2] was over 25 µM each time.
As for `COc1ccc(Cc2nnc(NC(=O)CCc3cccs3)s2)cc1OC`, the EC50 in assay [1] and in assay [2] was over 25 µM throughout.
On to `Cc1ccc(-c2cc(C(=O)NCCCn3ccnc3)c3cc(Br)ccc3n2)o1`, for which the half-maximal effective concentration (EC50) in assay [1] and in assay [2] was over 25 µM in each case.
As for `COc1ccc(Cc2nnc(NC(=O)C(=O)c3ccco3)s2)cc1OC`, the half-maximal effective concentration (EC50) in assay [1] and in assay [2] was over 25 µM in each case.
Turning to `CN(CCOc1ccc(Cl)cc1)C(=O)c1cc(-c2ccco2)nc2ccccc12`, the concentration giving a half-maximal response (EC50) in assay [1] and in assay [2] was over 25 µM throughout.
For the compound `CC(C)CCNC(=O)c1cc(-c2ccco2)nc2ccccc12`, the 50% effective concentration (EC50) in assay [1] and in assay [2] was over 25 µM each time.
As to `CCc1nnc(NC(=O)c2cc(-c3ccco3)nc3ccccc23)s1`, the half-maximal effective concentration (EC50) in assay [1] and in assay [2] was over 25 µM each time.
Turning to `CCCCCCNC(=O)c1cc(-c2ccco2)nc2ccccc12`, the 50% effective concentration (EC50) in assay [1] and in assay [2] was over 25 µM in each case.
On to `COc1cccc(CC(=O)Nc2nnc(Cc3ccc(OC)c(OC)c3)s2)c1`, for which the EC50 in assay [1] and in assay [2] was over 25 µM each time.
With `COc1ccc(Cc2nnc(NC(=O)Cc3ccccn3)s2)cc1OC`, the EC50 in assay [1] and in assay [2] was over 25 µM each time.
In the case of `O=C(Nc1ccccc1N1CCOCC1)c1cc(-c2ccco2)nc2ccccc12`, the concentration giving a half-maximal response (EC50) in assay [1] and in assay [2] was over 25 µM each time.
Turning to `Cc1ccc(-c2cc(C(=O)N3CCOCC3)c3ccccc3n2)o1`, the EC50 in assay [1] and in assay [2] was over 25 µM each time.
As for `COc1cccc(NC(=O)CN(C)C(=O)c2cc(-c3ccco3)nc3ccccc23)c1`, the 50% effective concentration (EC50) in assay [1] and in assay [2] was over 25 µM each time.
Regarding `CCOc1cc(N2CCOCC2)c(OCC)cc1NC(=O)c1cc(-c2ccco2)nc2ccccc12`, the EC50 in assay [1] and in assay [2] was over 25 µM in each case.
For `COc1ccc(Cc2nnc(NC(=O)c3cc(-c4ccc(C)o4)nc4ccccc34)s2)cc1OC`, the concentration for a half-maximal effect (EC50) in assay [1] amounted to 30 µM; in assay [2], 12 µM.
The corresponding values for `CN(CC(=O)Nc1ccc(F)cc1)C(=O)c1cc(-c2ccco2)nc2ccccc12` are over 25 µM and over 25 µM.
The corresponding values for `Cc1ccc(-c2cc(C(=O)N3CC(C)OC(C)C3)c3ccccc3n2)o1` (stereo not given) are over 25 µM and over 25 µM.
The corresponding values for `CN(CC(=O)Nc1cccc(F)c1)C(=O)c1cc(-c2ccco2)nc2ccccc12` are over 25 µM and over 25 µM.
Consider `Cc1ccc(-c2cc(C(=O)NCCN3CCOCC3)c3ccccc3n2)o1`, for which the EC50 in assay [1] and in assay [2] was over 25 µM throughout.
Take `COc1ccc(CCNC(=O)c2cc(-c3ccco3)nc3ccccc23)cc1`: the EC50 in assay [1] and in assay [2] was over 25 µM in each case.
With `COc1ccc(Cc2nnc(NC(=O)Cc3ccc(Oc4ccccc4)cc3)s2)cc1OC`, the 50% effective concentration (EC50) in assay [1] is 3.6 µM; in assay [2], 4 µM.
The corresponding values for `Cc1ccc2nc(NC(=O)c3cc(-c4ccco4)nc4ccccc34)sc2c1` are over 25 µM and over 25 µM.
The corresponding values for `COc1ccc(Cc2nnc(NC(=O)Cc3ccc(-c4ccccc4)cc3)s2)cc1OC` are over 25 µM and over 25 µM.
As for `Cc1ccc(NC(=O)c2cc(-c3ccc(C)o3)nc3ccccc23)cc1`, the EC50 in assay [1] and in assay [2] was over 25 µM throughout.
For `O=C(Nc1nc2ccccc2s1)c1cc(-c2ccco2)nc2ccccc12`, the concentration for a half-maximal effect (EC50) in assay [1] and in assay [2] was over 25 µM throughout.
On to `CCc1nnc(NC(=O)c2cc(-c3ccc(C)o3)nc3ccccc23)s1`, for which the EC50 in assay [1] and in assay [2] was over 25 µM each time.
For the compound `COc1ccc(Cc2nnc(NC(=O)Cc3cccc(Br)c3)s2)cc1OC`, the concentration giving a half-maximal response (EC50) in assay [1] and in assay [2] was over 25 µM in each case.
Take `Cc1ccc(-c2cc(C(=O)NCC(c3ccccc3)N(C)C)c3ccccc3n2)o1` (stereo not given): the EC50 in assay [1] and in assay [2] was over 25 µM in each case.
Take `Cc1csc(NC(=O)c2cc(-c3ccco3)nc3ccccc23)n1`: the concentration giving a half-maximal response (EC50) in assay [1] and in assay [2] was over 25 µM in each case.
With `CC1CCCN(C(=O)c2cc(-c3ccco3)nc3ccccc23)C1` (stereo not given), the EC50 in assay [1] and in assay [2] was over 25 µM in each case.
On to `Cc1ccc(-c2cc(C(=O)Nc3ccccc3C)c3ccccc3n2)o1`, for which the EC50 in assay [1] and in assay [2] was over 25 µM in each case.
Take `COc1ccc(Cc2nnc(NC(=O)Cc3csc4ccccc34)s2)cc1OC`: the concentration for a half-maximal effect (EC50) in assay [1] and in assay [2] was over 25 µM throughout.
With `O=C(c1cc(-c2ccco2)nc2ccccc12)N1CCN(Cc2ccccc2)CC1`, the EC50 in assay [1] and in assay [2] was over 25 µM throughout.
As for `O=C(Cc1cccs1)Nc1nnc(Cc2ccccc2)s1`, the half-maximal effective concentration (EC50) in assay [1] and in assay [2] was over 25 µM in each case.
Take `COc1ccc(Cc2nnc(NC(=O)Cc3cccs3)s2)cc1OC`: the EC50 in assay [1] and in assay [2] was over 25 µM each time.
Turning to `CCN(CC)C(=O)COc1ccc2c(-c3ccc(OC)cc3)cc(=O)oc2c1`, the EC50 in assay [1] and in assay [2] was over 25 µM throughout.
On to `O=C(Nc1ccc(F)cc1F)c1cc(-c2ccco2)nc2ccccc12`, for which the EC50 in assay [1] and in assay [2] was over 25 µM in each case.
For the compound `CC(=O)N1CCN(C(=O)c2cc(-c3ccc(C)o3)nc3ccccc23)CC1`, the EC50 in assay [1] and in assay [2] was over 25 µM in each case.
Consider `Cc1ccc(-c2cc(C(=O)N3CCN(c4ccc(F)cc4)CC3)c3ccccc3n2)o1`, for which the EC50 in assay [1] and in assay [2] was over 25 µM in each case.
As to `O=C(Nc1cccc(S(=O)(=O)NC2=NCCCCC2)c1)c1cc(-c2ccco2)nc2ccccc12`, the EC50 in assay [1] and in assay [2] was over 25 µM each time.
As for `Cc1ccc(-c2cc(C(=O)N3CCN(c4ncccn4)CC3)c3cc(Br)ccc3n2)o1`, the EC50 in assay [1] and in assay [2] was over 25 µM throughout.
